The record followed here is patent US10894817B2, “Fatty acid modified urocortin-2 analogs for the treatment of diabetes and chronic kidney disease” (priority 2016, dated 2021).

Values joined by “and” are separate entries in the source; they are usually repeats but may differ in a detail not shown here. Equal values may be shown once. Starred links: 1 amine or outer side, 2 acyl side, 3 side chain; linkers in the order of their positions; H or OH if unused. Non-standard residues stand in square brackets, D forms with d. Residues, ends and D or L forms follow the SMILES beside them. Groups on a side chain read outwards from the residue. *: point of attachment. C20 diacid = O=C(O)CCCCCCCCCCCCCCCCCCC(=O)*; γGlu = O=C(O)[C@H](CCC(=O)[*:2])N[*:1]; NMeI = CC[C@H](C)[C@H](NC)C(=O)O; AEEA = NCCOCCOCC(=O)O

One series has as its target T1, human CRHR1 (Homo sapiens, UniProt P34998).
T1 construct: which expresses endogenous human CRHR1; host or cells: Y79 human retinoblastoma cells
T1 sequence (P34998 24-415): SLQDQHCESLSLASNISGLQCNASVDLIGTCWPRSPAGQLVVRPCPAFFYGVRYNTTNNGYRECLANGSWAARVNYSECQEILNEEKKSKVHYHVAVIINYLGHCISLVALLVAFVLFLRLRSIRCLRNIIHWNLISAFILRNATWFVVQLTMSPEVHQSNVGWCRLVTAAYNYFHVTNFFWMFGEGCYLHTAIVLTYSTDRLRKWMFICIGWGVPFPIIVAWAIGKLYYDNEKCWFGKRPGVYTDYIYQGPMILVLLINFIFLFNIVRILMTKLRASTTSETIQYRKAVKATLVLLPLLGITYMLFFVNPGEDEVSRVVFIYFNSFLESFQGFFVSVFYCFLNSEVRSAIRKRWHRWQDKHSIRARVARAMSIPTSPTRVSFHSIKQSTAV
As to the kind of experiment: human CRHR1 cell-based cAMP assay (Y79 cells). Particulars: Y79 cells with endogenous human CRHR1, mean ± SEM of runs, read-out: hCRHR1 Average EC50. Here is the method: CRHR agonistic activity is measured in a cell-based cAMP assay. Serial dilutions of the test peptides are made in assay buffer containing Hank's Balanced Salt Solution (HBSS, without phenol red) supplemented with 20 mM HEPES and 0.05% lactalbumin enzymatic hydrolysate (LAH) (“assay buffer”). The highest concentration that is used starts from 1 μM in the human CRHR2b, whereas 100 μM starting concentration is used in the human CRHR1 assay. A one to three dilution of the test peptides is used in both assays.
The human Retinoblastoma cell line Y79 (ATCC #HTB-18), which expresses endogenous human CRHR1, is used in the human CRHR1 assay. The cells are grown in RPMI 1640 (Hyclone, #SH30255) containing 20% fetal bovine serum and 10 mM HEPES, in suspension culture. Cells are centrifuged to remove the culture media and washed once in HBSS supplemented with 20 mM HEPES. The cells are resuspended in the assay buffer and 20,000 cells are used per treatment in the human CRHR1 assay.
The cells are dispensed into Costar 96-well black polystyrene half area EIA/RIA plates (Corning Incorporated, Corning, N.Y.) followed by the addition of the diluted peptides, each at a volume of 20 μL. The agonist induced cAMP levels are detected using a HTRF cAMP Dynamic 2 kit (CisBio, Bedford, Mass.). After incubation at 37° C. for 30 min, the assay is stopped by cell lysis via the addition of 20 μL of d2-labeled cAMP and followed by 20 μL of cryptate-labeled anti-cAMP antibody, as described by the manufacturer. Cellular cAMP (as a result of agonist stimulation) competes with the d2-labeled cAMP for binding to the antibody. HTRF detection is performed on an Envision plate reader (Perkin Elmer Life and Analytical Sciences, Waltham, Mass.) by measuring ratiometric emission at 620 and 665 nm after excitation at 320 nm.
The data are converted to picomoles of cAMP using a standard curve obtained from the same assay performed with varying concentrations of unlabeled cAMP. Percent of the maximum activation of the cells is calculated using converted picomole cAMP data by comparing to the amount of cAMP produced by 1 μM human UCN2 for the human CRHR2b or 1 μM human UCN1 for the human CRHR1 assay. The data are analyzed using a Curve Fitting Tool to calculate ED50. Numeric values shown below in Table 1 represent the mean of multiple runs (number of runs shown in parentheses) following the mean value±SEM.
(Changes in cAMP serve as a functional read-out for many G protein-coupled receptors.)

Series [1] in a line: Pharmacokinetics, single subcutaneous dose, rats.
Protocol: (§1) Plasma concentrations of compounds were determined by LC/MS methods. Each method measured the intact compound; peptide plus linked time extension. For each assay, the compound and an analog, used as an internal standard (IS), were extracted from 100% mouse, rat or monkey plasma (25 μl) using acetonitrile. Two distinct layers were formed upon centrifugation with the compound and the IS located in the supernatant layer. An aliquot of the supernatant (80 μl) was transferred to a Thermo Protein Precipitation Plate with water (150 μl) and formic acid (25 μl) followed by mixing. A final 31% acetonitrile in 10% formic acid sample (10 μl) was loaded onto a Supelco Analytical Discovery BIO Wide Pore C5-3 column (5 cm×1 mm, 3 μm). The column effluent was directed into a Thermo Q-Exactive mass spectrometer for detection and quantitation.
Male Sprague Dawley rats were administered a single subcutaneous dose (50 or 150 nmol/kg) of a compound described herein in 20 mM Tris-HCl Tris Buffer (pH 8) at a volume of 0.26 or 0.77 mL/kg.
Series [2] is described as follows: Pharmacokinetics, single subcutaneous dose, mice. The following applies: male, CD-1, mouse, plasma, sc, 350 nmol/kg.
A short description of series [3]: Pharmacokinetics, single subcutaneous dose, monkeys.
Protocol: as §1
Male Cynomolgus monkeys were administered a single subcutaneous dose or intravenous dose (96.4 nmol/kg) of a compound described herein in 20 mM Tris-HCl Buffer (pH 7) at a volume of 1 mL/kg. Blood was collected from each animal at 2, 6, 24, 48, 72, 96, 168, 240, 336, 408, and 504 hours postdose for pharmacokinetic characterization.
Male Cynomolgus monkeys were also administered a single subcutaneous dose (50 nmol/kg) of a compound described herein in 20 mM Tris-HCl Buffer (pH 8) at a volume of 0.26 mL/kg. Blood was collected from each animal at 3, 6, 12, 24, 48, 72, 96, 120, 168, 192, 240, 336, 408, and 504 hours postdose for pharmacokinetic characterization.
The mark [4] stands for this setting: male, Sprague Dawley, rat, plasma, sc, 50 nmol/kg.
Where [5] appears, read: male, Sprague Dawley, rat, plasma, sc, 150 nmol/kg.
[6] abbreviates: male Cynomolgus monkeys, single 50 nmol/kg s.c., individual animal.
Setting [7] is: male, cynomolgus monkey, plasma, sc, 50 nmol/kg.

The term EC50 denotes the concentration that produces a half-maximal response. One may read the Cmax as the maximum level reached in the sampled fluid or tissue. What is called AUC(0-inf) is total exposure, with the tail of the curve extrapolated. Higher therefore signals more exposure. A word on the Tmax: it is the time from dosing to the highest level. In the case of `CC[C@H](C)[C@H](NC)C(=O)N[C@H](C(=O)N[C@@H](CC(C)C)C(=O)N[C@@H](CO)C(=O)N[C@@H](CC(C)C)C(=O)N[C@@H](CC(=O)O)C(=O)N[C@H](C(=O)N1CCC[C@H]1C(=O)N[C@H](C(=O)NCC(=O)N[C@@H](CC(C)C)C(=O)N[C@@H](CC(C)C)C(=O)N[C@@H](CCC(N)=O)C(=O)N[C@H](C(=O)N[C@@H](CC(C)C)C(=O)N[C@@H](CC(C)C)C(=O)N[C@@H](CCC(=O)O)C(=O)N[C@@H](CCC(N)=O)C(=O)N[C@@H](CCC(=O)O)C(=O)N[C@@H](CCCCN)C(=O)N[C@@H](CCC(N)=O)C(=O)N[C@@H](CCC(=O)O)C(=O)N[C@@H](CCCCN)C(=O)N[C@@H](CCC(=O)O)C(=O)N[C@@H](CCCCN)C(=O)N[C@@H](CCC(N)=O)C(=O)N[C@@H](CCC(N)=O)C(=O)N[C@@H](C)C(=O)N[C@@H](CCCCNC(=O)COCCOCCNC(=O)COCCOCCNC(=O)CC[C@H](NC(=O)CC[C@H](NC(=O)CCCCCCCCCCCCCCCCCCC(=O)O)C(=O)O)C(=O)O)C(=O)N[C@H](C(=O)N[C@@H](CC(N)=O)C(=O)N[C@@H](C)C(=O)N[C@@H](CCC(N)=O)C(=O)N[C@H](C(=O)N[C@@H](CC(C)C)C(=O)N[C@@H](C)C(=O)N[C@@H](CCC(N)=O)C(=O)N[C@H](C(N)=O)C(C)C)[C@@H](C)CC)[C@@H](C)O)[C@@H](C)CC)[C@@H](C)CC)C(C)C)C(C)C` [Example 4] (H-[NMeI]VLSLDVPIGLLQILLEQEKQEKEKQQAK([AEEA-AEEA-γGlu-γGlu-C20 diacid])TNAQILAQV-NH2), the EC50 on human CRHR1 is > 100 µM. Moreover, the Cmax in series [1] (male Sprague Dawley rats, single 50 nmol/kg s.c., individual animal) is 126 nM and 150 nM and 127 nM; in series [1] (male Sprague Dawley rats, single 150 nmol/kg s.c., individual animal) it was 356 nM and 527 nM and 482 nM; in series [1] (setting [4]) it was 134 nM; in series [1] (setting [5]), 455 nM; in series [2] it was 1160 nM; in series [3] (setting [6]), 333 nM and 291 nM. Besides, the peak concentration (Cmax) in series [3] (setting [7]) came to 312 nM. Moreover, the AUC(0-inf) was 7.51 µM·h in series [1] (setting [4]); 25.1 µM·h in series [1] (setting [5]); 51.6 µM·h in series [2]; 51.829 µM·h and 46.654 µM·h in series [3] (setting [6]); 49.2 µM·h in series [3] (setting [7]). The Tmax amounted to 24 h in series [1] (male, Sprague Dawley, rat, plasma, sc, 50 nmol/kg, male Sprague Dawley rats, single 50 nmol/kg s.c., Mean); 24 h in series [1] (male, Sprague Dawley, rat, plasma, sc, 50 nmol/kg, male Sprague Dawley rats, single 50 nmol/kg s.c., individual animal); 24 h in series [1] (male, Sprague Dawley, rat, plasma, sc, 150 nmol/kg, male Sprague Dawley rats, single 150 nmol/kg s.c., Mean); 24 h in series [1] (male, Sprague Dawley, rat, plasma, sc, 150 nmol/kg, male Sprague Dawley rats, single 150 nmol/kg s.c., individual animal); 24 h in series [2]; 36 h in series [3] (male, cynomolgus monkey, plasma, sc, 50 nmol/kg, male Cynomolgus monkeys, single 50 nmol/kg s.c., Mean). For the same molecule, in series [3] (male, cynomolgus monkey, plasma, sc, 50 nmol/kg, male Cynomolgus monkeys, single 50 nmol/kg s.c., individual animal), the Tmax came to 48 h.
